Results from the METLIN SMRT retention time set (Domingo-Almenara et al. 2019).

Assay: gradient 5% acetonitrile 3 min, to 50% in 2 min, to 85% in 15 min, held 3 min, 100 µL/min
Details: column: Zorbax Extend-C18 2.1 x 50 mm; eluents: water / acetonitrile, 0.1% formic acid
How it was run: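 Retention times of pure standards were taken from adduct peaks that were selected by computer and manually inspected. Over 3 months, mixtures of ~100 molecules were run by HPLC–quadrupole time-of-flight mass spectrometry in positive and negative ionization mode. The Zorbax Extend-C18 column (2.1 × 50 mm, 1.8 μm) ran at 100 μL/min in water and acetonitrile, each containing 0.1% formic acid, with 40 μL dead volume and 900 μL dwell volume.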

RP-LC retention time [s] | Structure (SMILES)
975 | Cc1ccccc1-c1nnc(COc2ccc(NC(=O)c3n[nH]c4c3CCCC4)cc2)o1
807 | O=C(c1cccc(F)c1)N1CCC(n2nc(-c3ccsc3)ccc2=O)CC1
703 | COc1cc(NC(=O)Cn2cnc3nc(N4CCCC4)ncc3c2=O)cc(OC)c1
645 | O=C(NC1CCCCC1)N1CCN(c2ccc3nnc(C4CC4)n3n2)CC1
707 | COc1ccc(C2(C(=O)NCC3Cn4cccc4C(=O)N3C)CC2)cc1 (centres undefined)
844 | CCCn1c(=O)sc2cc(S(=O)(=O)N3CCC(C(=O)Nc4cc(C)ccn4)CC3)ccc21
888 | O=C(Nc1cnc(-c2ccc(C(F)(F)F)cc2)nc1)C1CCOC1 (centres undefined)
650 | Cc1cc(C)nc(N2CCC(NC(=O)c3cccc4nccnc34)CC2)n1
890 | Cc1cccc(S(=O)(=O)N2CC3CN(C(=O)CC4CCCC4)CC(C2)O3)c1
602 | COCc1ncc(C)n1C1CCN(C(=O)c2ccc(Cc3c(C)noc3C)o2)C1 (centres undefined)
902 | O=C(NCc1ccccc1)C1CCCN(c2nc3ccsc3c(=O)n2Cc2ccccc2)C1 (centres undefined)
780 | CCn1nc(C)c2ccnc(N3CCC(C(=O)N4CCN(c5ccc(Cl)cc5)CC4)CC3)c21
663 | NC(=O)C1CCc2sc(C(=O)N3CCCCCC3)cc2C1 (centres undefined)
605 | Cc1noc2nc(CCC(=O)NCCCN3CCc4ccccc4C3)nc(N3CCOCC3)c12
852 | Cc1cc(Cl)ccc1NC(=O)C1CCCN(S(=O)(=O)c2c[nH]c(C(=O)N3CCCC3)c2)C1 (centres undefined)
625 | O=C(CN1C(=O)C(C(=O)N2CCCC2)Sc2ccccc21)N1CCN(Cc2ccccc2)CC1 (centres undefined)
651 | Cc1ccc(N2CCN(C(=O)c3cn4c(n3)COCC4)CC2)cc1
1190 | O=C(Nc1ccccc1Cl)c1cc(C2CC2)n2nccc2n1
1320 | Cc1ccc(C)c(N2CCN(C(=O)C3CCN(c4nccnc4Sc4ccccc4)CC3)CC2)c1
816 | Cc1nnc(C2CCCCCN2S(=O)(=O)c2ccccc2F)o1 (centres undefined)
652 | O=C1CCN(C(=O)c2ccsc2)CCCCCCN1
718 | CCNC(=O)C1CCCN(C(=O)c2cc(C)cc(C)c2)C1 (centres undefined)
761 | CCN1CCCn2nc(C3CCN(S(=O)(=O)c4ccc(F)cc4)CC3)cc2C1=O

RP-LC retention time [s] | Structure (SMILES)
826 | O=C(NCC1CC1)C1CCN(c2nc3ccsc3c(=O)n2Cc2ccc(F)cc2)CC1
780 | Cn1cnc(S(=O)(=O)N2CCC(C(=O)N3CCN(c4cccc(Cl)c4)CC3)CC2)c1
842 | CCCn1c(=O)c2cc(C(=O)NCc3ccc(N4CCOCC4)cc3)nn2c2ccccc21
929 | O=C(C1=NN(Cc2ccccc2)c2ccccc2S1(=O)=O)N1CCCCC1
582 | O=C(c1ccc(OC(F)(F)F)cc1)N1CCN(CCn2cccn2)CC1
831 | CCCc1nnc(SCC(=O)NC2CCCCCC2)n1-n1cccc1
1030 | O=C(NCCC1=CCCCC1)c1ccc(-c2nccnc2N2CCCC2)cc1
971 | O=C(C1CCN(S(=O)(=O)c2cc(-c3noc(C4CCC4)n3)cs2)CC1)N1CCCCC1
787 | CCCCN(C)C(=O)Cn1nc(C)c2c(C)n(-c3ccccc3)nc2c1=O
1120 | CC(C)Cc1ccc(S(=O)(=O)N2CCCC(CNC(=O)c3ccccc3)C2)cc1 (centres undefined)
931 | Cc1nc2ccn(Cc3cccs3)c(=O)c2cc1C(=O)NCCC1=CCCCC1
767 | Cc1ccc(C)c(NC(=O)N2CCC(N3CCN(Cc4cccc(F)c4)C(=O)C3=O)CC2)c1
894 | CCCn1c(-c2cccc(C(=O)NCc3cccc(Br)c3)c2)nc2cccnc21
655 | Cc1ccc(NC(=O)Cn2cnc3nc(N4CCC(C(=O)NC5CC5)CC4)sc3c2=O)c(F)c1
952 | CCn1cc(-c2ccc(OC)cc2)cc1C(=O)N1CCCC1
770 | CCc1ccc(NC(=O)N2CC(c3nc(C)no3)C3(CCOCC3)C2)cc1 (centres undefined)
958 | CC1CCN(S(=O)(=O)c2ccc3c(c2)CCCC(=O)N3CC(=O)Nc2ccccc2)CC1
796 | O=C(NC1CCCN(c2cc(-c3ccc(F)cc3)[nH]n2)C1)c1ccc2c(c1)OCO2 (centres undefined)
652 | O=C(C1CCN(c2nc3ccc(-c4cccnc4)nc3s2)CC1)N1CCCCC1
1230 | Cc1cccc(C)c1NC(=O)C1CCCN(c2nc3c(s2)c(C)nn3-c2cccc(F)c2)C1 (centres undefined)
896 | CCOC(=O)c1c(S(=O)(=O)N2CCC(C(=O)NCCC3=CCCCC3)CC2)c(C)n(C)c1C
691 | CS(=O)(=O)N1CCCCC1c1nncn1Cc1ccccc1 (centres undefined)

Further lines, the molecule ahead of its results:

Structure (SMILES) | RP-LC retention time [s]
Cn1c(=O)c2ccnn2c2ccc(C(=O)NCc3ccccc3)cc21 | 665
COc1ccc(N(CC(O)CNCCC(C)C)S(=O)(=O)c2ccc(C)cc2)cc1 (centres undefined) | 620
CC(=O)c1ccc(NC(=O)c2nc3nc(C)cc(C(F)F)n3n2)cc1 | 722
COc1ccc(CCS(=O)(=O)NCC2(CO)CC2)cc1 | 662
CC(=O)c1ccc(NC(=O)C(C)Oc2cc(-c3ccccc3)c3c(C)nn(C)c3n2)cc1 (centres undefined) | 990
COc1ccc(-c2nc(-n3c(C)c4c(C)nnc(C)c4c3C)sc2C)cc1 | 726
COc1ccc(Cc2nnc3sc(-c4cnccn4)nn23)cc1 | 730
NS(=O)(=O)c1ccc(NC2(C(=O)O)CCCC2)cc1 | 1010
Cc1nc(CC(=O)Nc2nc(-c3ccc(Br)cc3)cs2)cs1 | 996
O=C(NCCCN1CCOCC1)c1cc2occc2c(Nc2ccc(F)cc2)n1 | 652
Cc1nc(-c2noc(-c3ccncc3)n2)cn1CC(=O)NCc1cccc(Cl)c1 | 693
CN(CC(=O)Nc1ccc2c(c1)OCO2)c1nc2c(F)cccc2s1 | 828
CN1C(=O)CCc2cc(NC(=O)c3ccnn3C)ccc21 | 645
CC(=O)Nc1cccc(NC(C)=O)n1 | 609
CN(C)c1nc2cc(C(=O)N3CCOCC3)sc2n1-c1ccccc1 | 614
CCNS(=O)(=O)c1cc(-c2csc(C)n2)ccc1OC | 784
O=S(=O)(Nc1cccc(F)c1)c1ccc2nncn2c1 | 657
Cn1c(-c2cccs2)c(CNC(=O)Nc2ccc3c(c2)OCO3)c2ccccc21 | 1010
O=c1ccc(-c2cccs2)nn1CCCNS(=O)(=O)c1cccc(Cl)c1Cl | 856
Cc1ccc(-c2cc3c(=O)n(CC(O)c4ccccc4)ccn3n2)c(C)c1 (centres undefined) | 982
COc1cc2c(c(OC)c1OC)-c1ccc(OC)c(=O)cc1[C@@H](NC(=O)c1ccccc1)CC2 | 722
Cc1ccc(C2Cn3nnc(-c4nc(-c5ccc(C(F)(F)F)cc5)no4)c3CO2)c(C)c1 (centres undefined) | 1300

Structure (SMILES) | RP-LC retention time [s]
CCc1ccc(NC(=O)c2cc3sc(Cl)cc3n2C)cc1 | 1210
CCOc1ccc(C(C)NC(=O)c2cn3nc(OCC)ccc3n2)cc1 (centres undefined) | 935
Cc1ccc(C(=O)NCCn2c(=O)n(Cc3ccc(F)cc3)c3cccnc32)s1 | 781
Cc1ccc(NC(=O)N2CC(N(Cc3ccncc3)CC(C)C)C2)cc1F | 705
Cc1ccc(NS(=O)(=O)c2cc3n(c2)CCN(C(C)C)C3=O)c(C)c1 | 800
COc1ccc(CNC(=O)C2=C3CCCN3c3ccccc3S2(=O)=O)cc1 | 795
O=C(NCc1ccc(C(F)(F)F)cc1)c1ccc(-c2cncnc2)nc1 | 782
O=S(=O)(Nc1ccc(F)cc1F)c1ccc(-c2nnc(C3CCC3)o2)o1 | 879
C=Cc1ccc(Cn2c(C)c(CNCCc3ccco3)c(C(=O)O)c2C)cc1 | 755
CCCn1c(-c2cccc(C(=O)NCc3ccc(C(F)(F)F)cc3)c2)nc2cccnc21 | 933
COc1ccc(CN2C=C(C(=O)OCc3noc(-c4ccccc4)n3)C(C)=NS2(=O)=O)cc1 | 1100
COc1ccc(OC)c(NC(=O)c2sc(-c3cn(C(C)C)c4ncccc34)nc2C)c1 | 1030
O=C(NCC(=O)N1CCn2c1nc1ccccc12)c1ccc(=O)[nH]c1 | 555
Cc1noc(-c2nn(C)c3c2CN(C(=O)NC(C)C)CC3)n1 | 640
CCc1noc(NC(C)=O)c1-c1ccc(OC)c(S(=O)(=O)NCc2ccccc2C)c1 | 884
COC(=O)c1c(C)c(C(=O)C(C)N(C(=O)c2ccccc2Cl)C(C)C)c(C)n1C (centres undefined) | 975
COCCN(CC(=O)N1CCc2sccc2C1COc1ccc(Cl)cc1)C(=O)C1CC1 (centres undefined) | 931
CN(CC(=O)Nc1cccnc1)c1nc2ccccc2s1 | 568
COc1ccc(OC)c(NC(=O)C2CCN(C(=O)C3Sc4ccccc4NC3=O)CC2)c1 (centres undefined) | 754
Cc1ccc(CNc2c(-c3ccc(C(C)C)cc3)nc3ncccn23)cc1 | 907
Clc1ccc(Cl)c(-c2ccc(-c3nn4c(-c5ccco5)nnc4s3)o2)c1 | 1260
CCn1nnc(NCc2ccc(-c3ccc(Br)cc3Cl)o2)n1 | 1120
